Data taken from patent US20230416262A1, “TRPML MODULATORS” (Casma Therapeutics, Inc., priority 2020, published 2023).
pEC50: −log10 of the molar value.

Each compound was assayed on TFEB (assay: TFEB nuclear translocation assay). Details: Homo sapiens; HeLa wt or HeLa TRPML1 KO cells, treated for 2 hrs; ratio of nuclear to ring-region TFEB intensity.
Assay type: cell-based
Description: For the TFEB nuclear translocation assay, HeLa wt or HeLa TRPML1 KO cells were plated at 2700 cells/well into black-walled, 384-well Cell carrier Ultra tissue culture treated plates in complete media and incubated overnight. The next day, cells are treated for 2 hrs with compounds and incubated at 37° C. Cells were then fixed for 30 minutes at room temperature in 4% final PFA and washed five times with 90 μL PBS. PBS is aspirated from the wells and the cells are blocked with 7.5 μL blocking buffer (1.1 PBS/Odyssey block buffer containing 0.1% triton x-100 and 1% goat serum). After 30-60 minutes of block, 7.5 μL of primary anti-TFEB (rabbit) antibody is added for a final dilution of 1:200 antibody in 15 μL blocking buffer. Plates are incubated overnight at 4° C. The following day, plates are washed again into PBS, 90 μL with 5 washes, all PBS is aspirated from the wells and the cells are incubated for 1 hr in 1:1000 goat-anti rabbit Alexa 488 secondary antibody, also containing 10 μg/mL Hoechst 33342. After the 1 hr RT incubation, plates are washed a final time into PBS, sealed with foil and imaged with an automated epifluorescence microscopy (PerkinElmer Operetta CLS). Four different fields were imaged per well using ×20 magnification for DAPI and FITC filter sets. Images were quantified using PerkinElmer Harmony software, briefly: apply flatfield correction (basic/advanced) for input images. Use the Find Nuclei building block with channel set at Hoechst to find the nuclei. Use the Find cytoplasm building block with channel set to Alexa 488 to find the cytoplasm. Use select cell region with Channel set at Alexa 488 and region of interest as Nuclei and define outer border at 0 μm and inner at 45 μm to cover complete nuclei. Use select cell region with Channel set at Alexa 488 and region of interest as ring region and define outer border at −5 μm and inner at 0 μm to define a ring around the nucleus. Use the find calculate intensity parameter to calculate intensity of the nuclear region and the ring region. Define results as Number of nuclei and ratio of A/B where A is Intensity of Nuclei and B is intensity of the ring region.

Compound	pEC50
Cc1cccc(CS(=O)(=O)N2CC3(CCCC3)c3ccccc32)c1 [Compound I-16, 1′-[(3-methylphenyl)methanesulfonyl]-1′,2′-dihydrospiro[cyclopentane-1,3′-indole]]	≤ 5.00
CN1CCC2(C1)CN(S(=O)(=O)c1ccc(S(=O)(=O)N(C)C)cc1)c1ccccc12 (centres unmarked) [Compound I-90, N,N-dimethyl-4-({1′-methyl-1,2-dihydrospiro[indole-3,3′-pyrrolidin]-1-yl}sulfonyl)benzene-1-sulfonamide]	≤ 5.00
CN1Cc2cc(S(=O)(=O)N3CC4(CCCC4)c4ccccc43)ccc2OC1=O [Compound I-6, 6-({1′,2′-dihydrospiro[cyclopentane-1,3′-indol]-1′-yl}sulfonyl)-3-methyl-3,4-dihydro-2H-1,3-benzoxazin-2-one]	≤ 5.00
CN1CCC2(CC1)CN(S(=O)(=O)Cc1ccccc1)c1ccccc12 [Compound I-82, 1′-methyl-1-phenylmethanesulfonyl-1,2-dihydrospiro[indole-3,4′-piperidine]]	≤ 5.00
O=S(=O)(c1cnn(C2CCOCC2)c1)N1CC2(CCCC2)c2ccccc21 [Compound I-19]	≤ 5.00
CN(C)S(=O)(=O)c1ccc(S(=O)(=O)N2CC3(CCCC3)c3cnccc32)cc1 [Compound I-70, 4-({1′,2′-dihydrospiro[cyclopentane-1,3′-pyrrolo[3,2-c]pyridin]-1′-yl}sulfonyl)-N,N-dimethylbenzene-1-sulfonamide]	≤ 5.00
O=C(OCc1ccccc1)N1CCC2(C1)CN(S(=O)(=O)Cc1ccccc1)c1ccccc12 (centres unmarked) [Compound I-115, benzyl 1-phenylmethanesulfonyl-1,2-dihydrospiro[indole-3,3′-pyrrolidine]-1′-carboxylate]	5.10 to 5.70
O=S(=O)(c1cccc(C2CC2)c1)N1CC2(CCCC2)c2ccccc21 [Compound I-26, 1′-(3-cyclopropylbenzenesulfonyl)-1′,2′-dihydrospiro[cyclopentane-1,3′-indole]]	5.10 to 5.70
O=S(=O)(c1ccn(C2CC2(F)F)n1)N1CC2(CCCC2)c2ccccc21 (centres unmarked) [Compound I-43, 1′-{[1-(2,2-difluorocyclopropyl)-1H-pyrazol-3-yl]sulfonyl}-1′,2′-dihydrospiro[cyclopentane-1,3′-indole]]	≤ 5.00
Cc1ccc(S(=O)(=O)N2CC3(CCCC3)c3ccccc32)cc1F [Compound I-15, 1′-(3-fluoro-4-methylbenzenesulfonyl)-1′,2′-dihydrospiro[cyclopentane-1,3′-indole]]	5.00 to 5.10
O=S(=O)(c1ccc2c(c1)COCC2)N1CC2(CCCC2)c2ccccc21 [Compound I-37]	5.10 to 5.70
Cc1ccc(CS(=O)(=O)N2CC3(CCCC3)c3ccccc32)cc1 [Compound I-12, 1′-[(4-methylphenyl)methanesulfonyl]-1′,2′-dihydrospiro[cyclopentane-1,3′-indole]]	≤ 5.00
CN1CCC2(C1)CN(S(=O)(=O)c1ccc(C(F)F)cc1)c1ccccc12 (centres unmarked) [Compound I-89]	≤ 5.00
CN(C)S(=O)(=O)c1ccc(S(=O)(=O)N2CC3(CCCCC3)n3nc(C(F)(F)F)cc32)cc1 [Compound I-153, N,N-dimethyl-4-{[6′-(trifluoromethyl)-1′,2′-dihydrospiro[cyclohexane-1,3′-pyrazolo[1,5-a]imidazol]-1′-yl]sulfonyl}benzene-1-sulfonamide]	≥ 5.70
O=S(=O)(c1ccc(C2CC2)cc1)N1CC2(CCCC2)c2ccccc21 [Compound I-29, 1′-(4-cyclopropylbenzenesulfonyl)-1′,2′-dihydrospiro[cyclopentane-1,3′-indole]]	5.10 to 5.70
COC(CS(=O)(=O)N1CC2(CCCC2)c2ccccc21)c1ccc(F)cc1 (centres unmarked) [Compound I-7, 1′-[2-(4-fluorophenyl)-2-methoxyethanesulfonyl]-1′,2′-dihydrospiro[cyclopentane-1,3′-indole]]	≤ 5.00
O=S(=O)(c1cccc(C2CC2(F)F)c1)N1CC2(CCCC2)c2ccccc21 (centres unmarked) [Compound I-49, 1′-[3-(2,2-difluorocyclopropyl)benzenesulfonyl]-1′,2′-dihydrospiro[cyclopentane-1,3′-indole]]	5.10 to 5.70
O=S(=O)(c1cc(C2OCCO2)cs1)N1CC2(CCCC2)c2ccccc21 [Compound I-21, 1′-{[4-(1,3-dioxolan-2-yl)thiophen-2-yl]sulfonyl}-1′,2′-dihydrospiro[cyclopentane-1,3′-indole]]	≤ 5.00

Compound	pEC50
CN1CCC2(C1)CN(S(=O)(=O)Cc1ccccc1)c1ccccc12 (centres unmarked) [Compound I-88, 1′-methyl-1-phenylmethanesulfonyl-1,2-dihydrospiro[indole-3,3′-pyrrolidine]]	≤ 5.00
CN(C)S(=O)(=O)c1ccc(S(=O)(=O)N2CC3(CCCCC3)n3nccc32)cc1 [Compound I-125, 4-({1′,2′-dihydrospiro[cyclohexane-1,3′-pyrazolo[1,5-a]imidazol]-1′-yl}sulfonyl)-N,N-dimethylbenzene-1-sulfonamide]	≤ 5.00
O=S(=O)(Cc1ccccc1)N1CC2(CCN(CC(F)(F)F)CC2)c2ccccc21 [Compound I-85, 1-phenylmethanesulfonyl-1′-(2,2,2-trifluoroethyl)-1,2-dihydrospiro[indole-3,4′-piperidine]]	≤ 5.00
CN1CCC2(CC1)CN(S(=O)(=O)c1ccc(S(=O)(=O)N(C)C)cc1)c1ccccc12 [Compound I-84, N,N-dimethyl-4-({1′-methyl-1,2-dihydrospiro[indole-3,4′-piperidin]-1-yl}sulfonyl)benzene-1-sulfonamide]	≤ 5.00
CN(C)S(=O)(=O)c1ccc(S(=O)(=O)N2CC3(CCN(CC(F)(F)F)CC3)n3nccc32)cc1 [Compound I-144, N,N-dimethyl-4-{[1-(2,2,2-trifluoroethyl)-1′,2′-dihydrospiro[piperidine-4,3′-pyrazolo[1,5-a]imidazol]-1′-yl]sulfonyl}benzene-1-sulfonamide]	≤ 5.00
O=S(=O)(c1ccc(C(F)F)cc1)N1CC2(CCCC2)c2ccccc21 [Compound I-28, 1′-[4-(difluoromethyl)benzenesulfonyl]-1′,2′-dihydrospiro[cyclopentane-1,3′-indole]]	≤ 5.00
O=S(=O)(Cc1ccc(C(F)F)cc1)N1CC2(CCCC2)c2ccccc21 [Compound I-45, 1′-{[4-(difluoromethyl)phenyl]methanesulfonyl}-1′,2′-dihydrospiro[cyclopentane-1,3′-indole]]	5.10 to 5.70
CN(C)S(=O)(=O)c1ccc(S(=O)(=O)N2CC3(CCN(CC4CCOCC4)C3)c3ccccc32)cc1 (centres unmarked) [Compound I-96, N,N-dimethyl-4-({1′-[(oxan-4-yl)methyl]-1,2-dihydrospiro[indole-3,3′-pyrrolidin]-1-yl}sulfonyl)benzene-1-sulfonamide]	5.10 to 5.70
O=S(=O)(Cc1ccc2c(c1)COCC2)N1CC2(CCCC2)c2ccccc21 [Compound I-34, 1′-[(3,4-dihydro-1H-2-benzopyran-7-yl)methanesulfonyl]-1′,2′-dihydrospiro[cyclopentane-1,3′-indole]]	5.10 to 5.70
CC(C)(CO)c1ccc(S(=O)(=O)N2CC3(CCCC3)c3ccccc32)cc1 [Compound I-54, 2-[4-({1′,2′-dihydrospiro[cyclopentane-1,3′-indol]-1′-yl}sulfonyl)phenyl]-2-methylpropan-1-ol]	≤ 5.00
O=S(=O)(CC(F)c1ccccc1)N1CC2(CCCC2)c2ccccc21 (centres unmarked) [Compound I-38, 1′-(2-fluoro-2-phenylethanesulfonyl)-1′,2′-dihydrospiro[cyclopentane-1,3′-indole]]	≤ 5.00
CN(C)S(=O)(=O)c1ccc(S(=O)(=O)N2CC3(CCCC3)c3ncccc32)cc1 [Compound I-78, N,N-dimethyl-4-(spiro[cyclopentane-1,3′-pyrrolo[3,2-b]pyridin]-1′(2′H)-ylsulfonyl)benzenesulfonamide]	5.10 to 5.70
CC(C)(O)c1ccc(S(=O)(=O)N2CC3(CCCC3)c3ccccc32)cc1 [Compound I-50, 2-[4-({1′,2′-dihydrospiro[cyclopentane-1,3′-indol]-1′-yl}sulfonyl)phenyl]propan-2-ol]	≤ 5.00
O=S(=O)(Cc1ccccc1)N1CC2(CCN(CC(F)(F)F)C2)c2ccccc21 (centres unmarked) [Compound I-120]	5.10 to 5.70
COC(C)(C)c1ccc(S(=O)(=O)N2CC3(CCCC3)c3ccccc32)cc1 [Compound I-56, 1′-[4-(2-methoxypropan-2-yl)benzenesulfonyl]-1′,2′-dihydrospiro[cyclopentane-1,3′-indole]]	≤ 5.00
CS(=O)(=O)c1ccc(S(=O)(=O)N2CC3(CCN(c4ccc(Cl)cc4F)CC3)c3ccccc32)cc1 [Compound I-65, 1′-(4-chloro-2-fluorophenyl)-1-((4-(methylsulfonyl)phenyl)sulfonyl)spiro[indoline-3,4′-piperidine]]	≥ 5.70
COC(C)(C)c1cccc(S(=O)(=O)N2CC3(CCCC3)c3ccccc32)c1 [Compound I-60, 1′-[3-(2-methoxypropan-2-yl)benzenesulfonyl]-1′,2′-dihydrospiro[cyclopentane-1,3′-indole]]	5.00 to 5.10
